Assay results taken from publication PMC9138102, “The Role of ZIP9 and Androgen Receptor in the Establishment of Tight Junctions between Adult Rat Sertoli Cells” (Biology, 2022).

Tests used:
Cldn-1 = Cldn-1 expression in PASC1 cells, immunofluorescence; assay type: cell-based, rat; conditions: 10 nM testosterone or 10 µM IAPG, 24 h, n = 3 × 25
Method: (§1) PASC1 cells were plated at a density of 3.0 × 10^4 on 24-well plates (1 mL/well) and incubated 48 h at 37 °C and 5% CO2 until a confluence of roughly 80% was reached. Cells were rinsed with DPBS and fixed with 100% ice-cold methanol (Roth, Karlsruhe, Germany) on ice for 10 min directly or after stimulation with vehicle, 10 nM testosterone, or 1 µM P1 for 24 h. Cells were then washed with DPBS three times for 5 min, and then incubated in blocking solution (PBS with 3% BSA and 0.3% Triton X-100, both from Sigma-Aldrich) for 1 h at room temperature. The blocking solution was replaced by fresh blocking solution containing the primary antibodies for detection of either AR, p-Erk1/2, p-CREB/p-ATF-1, claudin-1 (Cldn-1), or zonula occludens-1 (ZO-1) (Supplementary Table S1) and incubated overnight at 4 °C. Cells were washed 3 times with DPBS for 3 min each at RT on an orbital shaker, freshly made blocking solution with the appropriate Alexafluor 488-conjugated donkey anti-rabbit secondary antibody was added for 1 h at room temperature on an orbital shaker. After washing 3 times with DPBS, images were obtained using an inverse Olympus IX81 microscope equipped with a fluorescence system. […] The data obtained were analyzed by GraphPad Prism5 (GraphPad Software, Inc., La Jolla, CA, USA).
(§2) For silencing ZIP9 or AR expression, PASC1 cells were treated with commercially available siRNA directed against the expression of ZIP9 or the AR by following the manufacturer’s protocol (Silencer ® Select, siRNA Invitrogen, Darmstadt, Germany). The following oligonucleotides were used: 5′ […]tt3′ and 5′ […]ta 3′ (ZIP9-siRNA for ZIP9 silencing) and 5′[…]tt3′ plus 5′ […]ag 3′ (AR-siRNA for AR silencing). Negative control siRNA (nc-siRNA) was provided in the siRNA kit from the same manufacturer. After incubation of PASC1 for 48 h with ZIP9-siRNA, AR-siRNA, or nc-siRNA, preparation of samples for qRT-PCR, TER measurement, or immunofluorescence experiments were carried out as described above.

Erk1/2 [1] = test: Erk1/2 phosphorylation in PASC1 cells, Western blot; assay type: cell-based, rat
Method: A total of 3 × 10^4 PASC1 cells/dish were grown in 5 cm culture dishes as described above. Cells were then incubated for 24 h with 1% FCS before testosterone or P1 were added to the medium to reach the desired final concentration. The ethanol vehicle for testosterone was added to the peptide-treated cells and untreated controls at the same concentration as in cell cultures treated with testosterone. After 24 h, the medium was aspired and the cells were washed twice in ice-cold DPBS. Cells were then incubated with 400 µL lysis buffer (Cell Signaling Technologies, Frankfurt, Germany) containing 1 µM PMSF, 1× protease inhibitor cocktail (Roche, Mannheim, Germany), and 2 µg/mL pepstatin that was added immediately before use. All further steps were carried out on ice. After 5 min of incubation, cells were detached using a cell scraper. The suspensions were then transferred into 1.5 mL vials and sonicated 5 times for 1 s each with intervals of 1 s. After centrifugation of the lysates at 4 °C and 13,000× g for 10 min, the protein concentration in the supernatants was determined at 540 nm using a bicinchoninic acid protein assay reagent kit (Pierce, Southfield, MI, USA) and a Labsystems (Helsinki, Finland) plate reader. The BSA protein standard contained lysis buffer at the same concentration as in the samples from the cell lysates. Supernatants were then aliquoted and maintained at −20 °C until further use.
A total of 10 µg protein from PASC1 cell lysates was run on SDS-PAGE gels containing 10% acrylamide and 0.3% N,N′-methylene-bis-acrylamide. Biotinylated proteins (Cell Signaling Technologies) were run in parallel as molecular weight markers. After electrophoresis, proteins were semi-dry electro-blotted onto PVDF membranes (Merck Chemicals GmbH, Schwalbach, Germany) for 30 min at […]. The membranes were then incubated for 1 h at room temperature in 5% (w/w) non-fat dry milk. Primary antibodies against phospho-Erk1/2, total-Erk1/2, or beta-actin were diluted according to the recommendations of the manufacturers and then incubated with the PVDF membranes overnight at 4 °C (see Supplementary Table S1 for all antibodies with dilutions and manufacturers). After washing in DPBS, the membranes were incubated under continuous mild agitation on an orbital shaker for 60 min at room temperature with a horseradish peroxidase-conjugated secondary antibody. An anti-biotin, HRP-conjugated antibody at a dilution of 1:2000 was also included in the mixture containing the secondary antibody in order to detect the biotinylated molecular weight marker. Antibody-labeled protein bands were visualized by enhanced chemiluminescence.
Figure 5 Western blot analysis of phospho-Erk1/2. PASC1 cells were stimulated for 24 h with various concentrations of testosterone or IAPG. (A) Phospho-Erk1/2 detection after stimulation with testosterone and (B) after stimulation with IAPG. […] For each diagram: n = 3; means ± SEM. Original Western blots are shown in Supplementary Figure S1.

[2] = tested on: androgen binding site ZIP9 of the Sertoli cell line 93RS2; parameters: method as in PMID 35053053, PMID 35053017; conditions: 93RS2 / L6 (cell line not separately stated); cited from earlier work
Erk1/2 [3] = test: phospho-Erk1/2 immunofluorescence in PASC1 cells after AR or ZIP9 silencing; assay type: cell-based, rat; conditions: 10 nM testosterone or 10 µM IAPG, 24 h
Method: as §1, §2

AR = AR nuclear translocation in PASC1 cells (immunofluorescence); assay type: cell-based, rat; conditions: 2 h
Method: PASC1 cells were plated at a density of 3.0 × 10^4 on 24-well plates (1 mL/well) and incubated 48 h at 37 °C and 5% CO2 until a confluence of roughly 80% was reached. Cells were rinsed with DPBS and fixed with 100% ice-cold methanol (Roth, Karlsruhe, Germany) on ice for 10 min directly or after stimulation with vehicle, 10 nM testosterone, or 1 µM P1 for 24 h. Cells were then washed with DPBS three times for 5 min, and then incubated in blocking solution (PBS with 3% BSA and 0.3% Triton X-100, both from Sigma-Aldrich) for 1 h at room temperature. The blocking solution was replaced by fresh blocking solution containing the primary antibodies for detection of either AR, p-Erk1/2, p-CREB/p-ATF-1, claudin-1 (Cldn-1), or zonula occludens-1 (ZO-1) (Supplementary Table S1) and incubated overnight at 4 °C. […] After washing 3 times with DPBS, images were obtained using an inverse Olympus IX81 microscope equipped with a fluorescence system. A total of 30 cells from 3 independent experiments (30 × 3) localized closest to the diagonals of the square optical field were selected and the manually surrounded green fluorescence was quantified by ImageJ (available at http://rsbweb.nih.gov/ij/, last accessed 28 February 2022) following the protocol of the software provider.

PASC1 cells = test: Transepithelial electrical resistance (TER) across PASC1 cell layers; assay type: cell-based, rat; conditions: 10 nM testosterone or 10 µM IAPG, 0, 24, 48, 72 h, n = 6, means ± SEM
Method: TER measurements were performed as described. Briefly, 6.0 × 10^4 cells/cm^2 of androgen receptor (AR)- or ZIP9-knockdown PASC1 or non-treated PASC1 cells were seeded on 0.4 μm inserts of 24-well plates (Greiner bio one, Frickenhausen, Germany) and cultured for 48 h until they reached confluence. […] As testosterone was dissolved in ethanol (vehicle), the same volume of ethanol was added to the peptide-treated cells and untreated controls. TER measurements were made with a Millicell ERS-2 epithelial Volt-Ohm meter (Merck Millipore, Darmstadt, Germany). ΩXcm^2 was calculated according to the protocol of the manufacturer by setting the resistance of cell-free inserts to zero.
as §2

Compound | Cldn-1 expression (Cldn-1; AR-siRNA) | Cldn-1 expression (Cldn-1; ZIP9-siRNA) | Cldn-1 expression (Cldn-1; nc-siRNA) | Total expression of Erk1/2 or beta-actin (Erk1/2 [1]) | EC50 (Erk1/2 [1]; Rattus norvegicus, 24 h per legend, within 30 min per text, 10^-10 to 10^-7 M, n = 3, means ± SEM) | Concentration needed for maximum stimulation of Erk1/2 phosphorylation (Erk1/2 [1]; testosterone) | Prevention of T-BSA-FITC binding [2] | Stimulatory effect on Erk1/2 phosphorylation, nc-siRNA versus AR-siRNA (Erk1/2 [3]) | Erk1/2 phosphorylation (green fluorescence) (Erk1/2 [3]; AR-siRNA, ** p ≤ 0.01) | Erk1/2 phosphorylation (green fluorescence) (Erk1/2 [3]; ZIP9-siRNA, ns) | Erk1/2 phosphorylation (green fluorescence) (Erk1/2 [3]; nc-siRNA, ** p ≤ 0.01) | AR localization / translocation into the nucleus (AR; testosterone 10 nM) | TJ formation (TER) (PASC1 cells; AR-siRNA) | TJ formation (TER) (PASC1 cells; ZIP9-siRNA) | TJ formation (TER) (PASC1 cells; nc-siRNA) | Concentration needed for maximum stimulation of Erk1/2 phosphorylation (Erk1/2 [1]; IAPG) | AR localization / translocation into the nucleus (AR; IAPG 10 µM)
C[C@]12CC[C@H]3[C@@H](CCC4=CC(=O)CC[C@@]43C)[C@@H]1CC[C@@H]2O [testosterone] | stimulated the expression of Cldn-1 | failed to do so | stimulated the expression of Cldn-1 | did not affect total expression of Erk1/2 or beta-actin | 0.35 nM | 0.01 µM | Its binding can be prevented | not significantly different from each other | responded with augmented phosphorylation of Erk1/2 | entirely prevented stimulation of Erk1/2 phosphorylation | low (Figure 6A) relative to the signal obtained in cells exposed to testosterone | all green fluorescence was found within the nuclei | had the same effect | failed to stimulate TJ formation | tighter TJ than the control already after 1 day of treatment, as demonstrated by increased TER |  | 
IAPG | stimulated the expression of Cldn-1 | failed to do so | stimulated the expression of Cldn-1 | did not affect total expression of Erk1/2 or beta-actin |  |  | Its binding can be prevented | not significantly different from each other | responded with augmented phosphorylation of Erk1/2 | entirely prevented stimulation of Erk1/2 phosphorylation | low (Figure 6A) relative to the signal obtained in cells exposed to testosterone (Figure 6B) or IAPG |  | had the same effect | failed to stimulate TJ formation | tighter TJ than the control already after 1 day of treatment, as demonstrated by increased TER | 10 µM | A translocation of the AR from the cytosol into the nucleus did not occur
